Among the data in ChEMBL document CHEMBL5653631, “A Potent and Selective ULK1 Inhibitor Suppresses Autophagy and Sensitizes Cancer Cells to Nutrient Stress” (iScience, 2018) are inhibition and fold change (FC) values, retold here.

The structures appear in SMILES notation.

The target of test [1] is Calcium/calmodulin-dependent protein kinase kinase 2 (Homo sapiens) (UniProt Q96RR4). The test is described as follows: Inhibition of human recombinant CaMKK2 at 40 nM in presence of ATP by radiometric assay relative to control.
Test [2] has as its target T1, Serine/threonine-protein kinase Sgk3 (Homo sapiens) (UniProt Q96BR1).
T1 sequence (whole entry): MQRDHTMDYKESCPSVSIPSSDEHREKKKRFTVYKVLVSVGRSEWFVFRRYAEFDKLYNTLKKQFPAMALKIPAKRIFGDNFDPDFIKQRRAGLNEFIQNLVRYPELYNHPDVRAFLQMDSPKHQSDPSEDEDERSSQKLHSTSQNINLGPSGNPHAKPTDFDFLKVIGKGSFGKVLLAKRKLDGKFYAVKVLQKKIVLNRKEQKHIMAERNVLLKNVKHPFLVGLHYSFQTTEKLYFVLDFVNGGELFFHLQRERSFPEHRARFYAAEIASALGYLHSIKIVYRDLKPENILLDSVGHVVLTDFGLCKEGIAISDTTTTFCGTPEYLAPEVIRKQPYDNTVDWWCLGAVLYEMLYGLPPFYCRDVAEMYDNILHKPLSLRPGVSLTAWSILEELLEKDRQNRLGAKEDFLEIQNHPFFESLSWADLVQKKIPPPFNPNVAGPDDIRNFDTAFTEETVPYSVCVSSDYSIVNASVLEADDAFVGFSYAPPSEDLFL
As to the kind of experiment: Inhibition of human recombinant SGK3 at 40 nM related to control ULK1.

Test [3] deals with Cyclin-dependent kinase 1 (Homo sapiens) (UniProt P06493). The test is described as follows: Inhibition of human recombinant CDC2 at 40 nM related to control ULK1.
The target of test [4] is T2, Protein kinase C epsilon type (Homo sapiens) (UniProt Q02156).
T2 sequence (whole entry): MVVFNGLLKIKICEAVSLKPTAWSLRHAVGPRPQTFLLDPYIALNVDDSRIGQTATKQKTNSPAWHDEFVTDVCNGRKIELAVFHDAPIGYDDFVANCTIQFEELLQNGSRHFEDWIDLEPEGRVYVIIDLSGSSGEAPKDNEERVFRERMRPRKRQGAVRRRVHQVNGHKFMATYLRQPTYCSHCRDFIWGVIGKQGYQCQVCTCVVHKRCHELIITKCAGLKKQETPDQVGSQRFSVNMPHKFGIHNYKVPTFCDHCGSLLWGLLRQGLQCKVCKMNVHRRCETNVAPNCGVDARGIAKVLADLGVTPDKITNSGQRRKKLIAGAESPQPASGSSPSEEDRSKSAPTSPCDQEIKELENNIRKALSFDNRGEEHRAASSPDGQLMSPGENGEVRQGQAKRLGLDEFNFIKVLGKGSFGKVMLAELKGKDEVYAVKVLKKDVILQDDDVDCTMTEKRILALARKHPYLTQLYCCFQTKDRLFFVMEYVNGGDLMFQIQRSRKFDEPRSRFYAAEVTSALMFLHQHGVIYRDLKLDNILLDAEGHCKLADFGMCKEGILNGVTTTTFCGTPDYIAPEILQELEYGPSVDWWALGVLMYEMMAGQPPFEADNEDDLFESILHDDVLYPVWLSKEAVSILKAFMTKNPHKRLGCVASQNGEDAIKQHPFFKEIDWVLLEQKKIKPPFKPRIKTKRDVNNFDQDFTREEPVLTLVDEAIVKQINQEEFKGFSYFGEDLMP
The test is described as follows: Inhibition of human recombinant PKCe at 500 nM in presence of ATP by radiometric assay relative to control.

Test [5] concerns the target Tyrosine-protein kinase SYK (Homo sapiens) (UniProt P43405). The test is described as follows: Inhibition of human recombinant SYK at 500 nM in presence of ATP by radiometric assay relative to control.
Test [6] addresses Mitogen-activated protein kinase kinase kinase kinase 1 (Homo sapiens) (UniProt Q92918). The test is described as follows: Inhibition of human recombinant HPK1 at 15 nM in presence of ATP by radiometric assay relative to control.
For test [7], the target named is Serine/threonine-protein kinase tousled-like 2 (Homo sapiens) (UniProt Q86UE8). As to the kind of experiment: Inhibition of human recombinant TLK2 at 15 nM related to control ULK1.
Test [8] addresses T3, Serine/threonine-protein kinase 3 (Homo sapiens) (UniProt Q13188).
T3 sequence (whole entry): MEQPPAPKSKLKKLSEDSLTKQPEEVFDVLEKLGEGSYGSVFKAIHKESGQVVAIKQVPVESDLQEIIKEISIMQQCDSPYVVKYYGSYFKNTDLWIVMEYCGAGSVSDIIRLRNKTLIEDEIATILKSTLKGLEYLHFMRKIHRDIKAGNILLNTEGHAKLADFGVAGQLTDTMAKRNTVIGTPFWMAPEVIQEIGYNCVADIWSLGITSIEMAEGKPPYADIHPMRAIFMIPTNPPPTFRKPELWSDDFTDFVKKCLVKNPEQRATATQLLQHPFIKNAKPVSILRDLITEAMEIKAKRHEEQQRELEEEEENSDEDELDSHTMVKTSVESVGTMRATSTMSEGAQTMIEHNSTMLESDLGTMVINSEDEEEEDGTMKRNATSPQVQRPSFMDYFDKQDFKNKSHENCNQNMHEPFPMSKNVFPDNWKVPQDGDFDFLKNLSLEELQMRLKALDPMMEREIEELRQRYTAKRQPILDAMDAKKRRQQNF
The test is described as follows: Inhibition of human recombinant MST2 at 15 nM related to control ULK1.

Test [9] addresses Serine/threonine-protein kinase N2 (Homo sapiens) (UniProt Q16513). As to the kind of experiment: Inhibition of human recombinant PKN2 at 15 nM related to control ULK1.
Test [10] concerns the target T4, Serine/threonine-protein kinase Chk1 (Homo sapiens) (UniProt O14757).
T4 sequence (whole entry): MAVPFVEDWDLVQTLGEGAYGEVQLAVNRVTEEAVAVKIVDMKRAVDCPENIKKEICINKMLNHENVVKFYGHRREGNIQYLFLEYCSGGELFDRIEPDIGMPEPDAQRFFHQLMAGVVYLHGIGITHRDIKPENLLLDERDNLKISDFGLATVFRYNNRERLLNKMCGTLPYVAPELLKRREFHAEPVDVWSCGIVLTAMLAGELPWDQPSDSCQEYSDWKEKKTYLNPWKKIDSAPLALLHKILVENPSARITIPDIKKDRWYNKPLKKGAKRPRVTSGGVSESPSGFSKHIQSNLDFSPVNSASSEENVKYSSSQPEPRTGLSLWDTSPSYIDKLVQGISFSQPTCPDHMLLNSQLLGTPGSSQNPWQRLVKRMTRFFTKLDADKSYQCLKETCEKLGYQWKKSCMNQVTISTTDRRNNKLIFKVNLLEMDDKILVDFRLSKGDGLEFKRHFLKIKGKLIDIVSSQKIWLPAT
The test is described as follows: Inhibition of human recombinant CHK1 at 15 nM in presence of ATP by radiometric assay relative to control.

In test [11] the target is BDNF/NT-3 growth factors receptor (Homo sapiens) (UniProt Q16620). The test is described as follows: Inhibition of human recombinant TRKB at 15 nM in presence of ATP by radiometric assay relative to control.
In test [12] the target is Dual specificity tyrosine-phosphorylation-regulated kinase 1A (Homo sapiens) (UniProt Q13627). The test is described as follows: Inhibition of human recombinant DYRK1A at 15 nM in presence of ATP by radiometric assay relative to control.

Cyclin-dependent kinase 1 (Homo sapiens), sequence (P06493 whole entry, looked up): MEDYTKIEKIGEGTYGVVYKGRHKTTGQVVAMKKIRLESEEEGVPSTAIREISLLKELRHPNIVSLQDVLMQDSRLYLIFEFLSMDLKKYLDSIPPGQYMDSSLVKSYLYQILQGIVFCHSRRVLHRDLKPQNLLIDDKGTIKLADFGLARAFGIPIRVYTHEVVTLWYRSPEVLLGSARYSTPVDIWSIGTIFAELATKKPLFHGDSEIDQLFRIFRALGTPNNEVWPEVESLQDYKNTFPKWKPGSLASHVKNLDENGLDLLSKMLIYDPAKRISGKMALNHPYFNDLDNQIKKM
Mitogen-activated protein kinase kinase kinase kinase 1 (Homo sapiens), sequence (Q92918 whole entry, looked up): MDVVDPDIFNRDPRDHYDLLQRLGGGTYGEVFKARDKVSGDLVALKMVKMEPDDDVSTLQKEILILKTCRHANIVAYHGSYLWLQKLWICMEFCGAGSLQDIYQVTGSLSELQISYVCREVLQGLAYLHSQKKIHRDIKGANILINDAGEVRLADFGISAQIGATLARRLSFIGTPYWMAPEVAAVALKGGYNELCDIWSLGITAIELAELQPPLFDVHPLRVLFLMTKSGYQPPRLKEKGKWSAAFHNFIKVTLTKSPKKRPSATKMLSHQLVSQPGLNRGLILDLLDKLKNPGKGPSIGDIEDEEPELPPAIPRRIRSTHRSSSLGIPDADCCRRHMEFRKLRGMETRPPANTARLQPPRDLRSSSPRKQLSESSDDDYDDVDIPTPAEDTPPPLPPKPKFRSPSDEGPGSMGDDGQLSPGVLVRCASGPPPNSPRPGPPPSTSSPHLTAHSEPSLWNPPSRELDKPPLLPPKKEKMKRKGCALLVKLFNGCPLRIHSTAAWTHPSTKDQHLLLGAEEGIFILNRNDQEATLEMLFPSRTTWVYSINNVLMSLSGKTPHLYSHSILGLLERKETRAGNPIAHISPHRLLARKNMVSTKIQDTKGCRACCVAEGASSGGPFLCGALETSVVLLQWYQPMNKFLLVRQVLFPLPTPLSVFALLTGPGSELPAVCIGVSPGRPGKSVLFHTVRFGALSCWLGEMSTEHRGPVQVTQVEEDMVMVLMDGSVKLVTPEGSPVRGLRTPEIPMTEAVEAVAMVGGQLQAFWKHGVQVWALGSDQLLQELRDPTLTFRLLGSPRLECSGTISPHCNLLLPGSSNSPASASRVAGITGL
Serine/threonine-protein kinase tousled-like 2 (Homo sapiens), sequence (Q86UE8 whole entry, looked up): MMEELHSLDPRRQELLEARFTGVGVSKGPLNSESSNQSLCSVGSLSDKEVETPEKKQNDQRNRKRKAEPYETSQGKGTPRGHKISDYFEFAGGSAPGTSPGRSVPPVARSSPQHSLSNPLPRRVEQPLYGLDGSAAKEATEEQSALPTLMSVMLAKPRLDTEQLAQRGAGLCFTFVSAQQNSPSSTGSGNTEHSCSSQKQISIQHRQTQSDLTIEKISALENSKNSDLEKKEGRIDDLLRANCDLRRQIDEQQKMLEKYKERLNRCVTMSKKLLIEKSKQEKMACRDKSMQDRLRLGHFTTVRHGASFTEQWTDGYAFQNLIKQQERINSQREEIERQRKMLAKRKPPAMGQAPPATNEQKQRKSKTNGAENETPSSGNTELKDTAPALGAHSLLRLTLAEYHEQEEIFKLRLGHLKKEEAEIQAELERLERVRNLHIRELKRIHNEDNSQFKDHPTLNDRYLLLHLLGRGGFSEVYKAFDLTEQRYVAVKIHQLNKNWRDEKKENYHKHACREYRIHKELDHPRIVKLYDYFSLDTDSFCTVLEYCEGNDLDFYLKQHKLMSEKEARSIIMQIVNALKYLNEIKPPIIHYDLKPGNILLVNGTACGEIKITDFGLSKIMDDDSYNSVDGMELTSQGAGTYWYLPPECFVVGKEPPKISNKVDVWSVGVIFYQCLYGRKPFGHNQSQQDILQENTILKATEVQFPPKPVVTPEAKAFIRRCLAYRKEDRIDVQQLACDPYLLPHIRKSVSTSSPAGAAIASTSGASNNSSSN
Calcium/calmodulin-dependent protein kinase kinase 2 (Homo sapiens), sequence (Q96RR4 2-588 limits assumed): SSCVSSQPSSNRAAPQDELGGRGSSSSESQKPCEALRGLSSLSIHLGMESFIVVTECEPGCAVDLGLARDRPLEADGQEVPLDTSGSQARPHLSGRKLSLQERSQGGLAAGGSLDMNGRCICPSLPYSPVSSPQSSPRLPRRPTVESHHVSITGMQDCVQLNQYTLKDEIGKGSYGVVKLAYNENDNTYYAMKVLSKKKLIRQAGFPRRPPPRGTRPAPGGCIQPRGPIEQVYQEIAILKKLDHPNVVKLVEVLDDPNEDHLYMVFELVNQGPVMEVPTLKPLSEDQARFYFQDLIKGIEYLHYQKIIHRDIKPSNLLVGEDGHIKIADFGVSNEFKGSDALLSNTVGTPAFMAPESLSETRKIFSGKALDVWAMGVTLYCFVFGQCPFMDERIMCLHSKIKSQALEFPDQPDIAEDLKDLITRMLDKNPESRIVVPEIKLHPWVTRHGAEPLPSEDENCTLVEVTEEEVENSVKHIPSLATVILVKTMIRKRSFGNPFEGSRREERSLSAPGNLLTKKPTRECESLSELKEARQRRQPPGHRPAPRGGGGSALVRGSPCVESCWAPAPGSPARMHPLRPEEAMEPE
Serine/threonine-protein kinase N2 (Homo sapiens), sequence (Q16513 whole entry, looked up): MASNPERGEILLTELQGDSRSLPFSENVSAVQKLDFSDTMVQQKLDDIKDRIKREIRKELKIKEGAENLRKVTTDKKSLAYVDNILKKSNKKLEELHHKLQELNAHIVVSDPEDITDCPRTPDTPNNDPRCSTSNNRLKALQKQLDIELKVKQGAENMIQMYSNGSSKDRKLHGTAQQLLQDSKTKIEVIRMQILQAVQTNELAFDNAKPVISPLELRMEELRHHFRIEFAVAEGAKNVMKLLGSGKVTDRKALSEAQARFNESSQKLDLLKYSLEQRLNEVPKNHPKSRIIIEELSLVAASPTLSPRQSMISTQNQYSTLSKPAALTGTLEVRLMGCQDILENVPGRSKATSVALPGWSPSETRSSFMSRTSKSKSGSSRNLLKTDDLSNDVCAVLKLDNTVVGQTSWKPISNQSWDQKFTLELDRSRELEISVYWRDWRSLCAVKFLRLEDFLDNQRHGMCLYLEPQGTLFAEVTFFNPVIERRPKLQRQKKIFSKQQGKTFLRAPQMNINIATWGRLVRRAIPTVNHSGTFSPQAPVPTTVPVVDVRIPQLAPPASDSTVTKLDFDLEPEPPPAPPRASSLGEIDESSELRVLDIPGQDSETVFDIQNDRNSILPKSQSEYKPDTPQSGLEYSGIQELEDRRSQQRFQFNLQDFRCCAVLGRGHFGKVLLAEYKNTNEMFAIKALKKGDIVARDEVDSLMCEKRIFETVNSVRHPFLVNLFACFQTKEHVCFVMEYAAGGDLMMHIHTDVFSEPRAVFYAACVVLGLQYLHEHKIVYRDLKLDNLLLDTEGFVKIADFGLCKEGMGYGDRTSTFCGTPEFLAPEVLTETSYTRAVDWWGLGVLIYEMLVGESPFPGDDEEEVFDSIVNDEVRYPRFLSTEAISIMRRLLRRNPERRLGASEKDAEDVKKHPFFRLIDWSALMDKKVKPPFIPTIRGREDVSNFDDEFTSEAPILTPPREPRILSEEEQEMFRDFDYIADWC
BDNF/NT-3 growth factors receptor (Homo sapiens), sequence (Q16620 32-822 limits assumed): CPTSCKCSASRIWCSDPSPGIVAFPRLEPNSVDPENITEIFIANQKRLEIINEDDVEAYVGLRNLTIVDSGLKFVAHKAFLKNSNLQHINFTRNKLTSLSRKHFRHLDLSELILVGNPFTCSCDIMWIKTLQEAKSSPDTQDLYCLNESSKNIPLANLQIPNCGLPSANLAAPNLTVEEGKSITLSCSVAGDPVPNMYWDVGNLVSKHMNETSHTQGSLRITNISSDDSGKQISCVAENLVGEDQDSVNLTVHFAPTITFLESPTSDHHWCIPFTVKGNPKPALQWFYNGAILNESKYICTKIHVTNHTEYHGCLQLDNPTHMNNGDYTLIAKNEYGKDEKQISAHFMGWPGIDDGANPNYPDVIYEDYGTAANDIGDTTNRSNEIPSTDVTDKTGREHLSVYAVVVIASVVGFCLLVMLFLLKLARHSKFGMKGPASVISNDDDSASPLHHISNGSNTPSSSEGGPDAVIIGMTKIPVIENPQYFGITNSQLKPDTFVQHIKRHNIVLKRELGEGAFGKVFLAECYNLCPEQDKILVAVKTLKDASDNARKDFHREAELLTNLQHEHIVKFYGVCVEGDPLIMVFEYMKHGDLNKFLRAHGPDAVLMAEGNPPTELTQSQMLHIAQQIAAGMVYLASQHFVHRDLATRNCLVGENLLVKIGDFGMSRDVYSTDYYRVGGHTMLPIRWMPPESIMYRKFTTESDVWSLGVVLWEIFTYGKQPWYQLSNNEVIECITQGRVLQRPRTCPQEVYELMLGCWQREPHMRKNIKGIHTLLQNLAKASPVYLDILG

Turning to `O=C(N[C@@H](C1CC1)C(F)(F)F)c1cc(-c2cnn3cc(-c4ccc(F)cc4)cnc23)cs1`, the inhibition (as a rule, the change of the read-out against control, counted positive when it falls) in [1] was determined as 0%. The figures for the fold change (FC) in test [2] and in test [3] were 0 and 0.62, respectively.

Turning to `CNC(=O)c1ccccc1Oc1nc(Nc2cc(OC)c(OC)c(OC)c2)ncc1Br`, the inhibition in [4] and in test [5] was 0% each time.

With `CC(C)[C@H](NC(=O)c1cc(-c2cnn3cc(-c4ccc(OCCN5CCCCC5)cc4)cnc23)cs1)C(F)(F)F`, the inhibition in [6] is 0%; in [10], 0%; in test [11], 0%; in test [12], 73%. Moreover, the fold change (FC) is 0.03 in test [7], 0.03 in [8] and 0 in test [9].
